According to patent publication US7544373B2, “Minocycline oral dosage forms for the treatment of acne” (Medicis Pharmaceutical Corporation, priority 2007, dated 2009):

Test: Repeat-dose primate toxicology studies
Assay type: in vivo

For CN(C)c1ccc(O)c2c1C[C@H]1C[C@H]3[C@H](N(C)C)C(O)=C(C(N)=O)C(=O)[C@@]3(O)C(O)=C1C2=O [minocycline], the “lowest exposure which yields adverse effects” value (4 weeks) was about 15 µg/mL and the “lowest exposure which yields adverse effects” value (13 weeks) was about 7 µg/mL.
